Results: patent publication US12391691B2, “Synthesis of key intermediate of KRAS G12C inhibitor compound” (Amgen Inc., priority 2018, dated 2025)
In brackets after ≈: the same amount, converted by molar mass.

Legend:
[1] = physchem; conditions: organic solvent or mixture, thermodynamic from solid
[2] = 5-day equilibrium solubility of M/P-Dione (ternary phase diagram); conditions: 2-MeTHF/n-heptane (1.4:1, v/v), RT, 5 days; for Solid XRPD: residual solid
[3] = #3: 20.2 mg M-Dione + 119.3 mg P-Dione
[4] = #4: 89.8 mg M-Dione + 90.3 mg P-Dione
[5] = #5: 121.1 mg M-Dione + 40.7 mg P-Dione
[6] = #6: 90.2 mg M-Dione + 19.5 mg P-Dione
[7] = #7: 41.6 mg M-Dione + 39.9 mg P-Dione
[8] = #8: 39.2 mg M-Dione + 120.3 mg P-Dione
[9] = #9: 119.1 mg M-Dione + 20.5 mg P-Dione

Compound: O=C(O[C@H](C(=O)O)[C@H](OC(=O)c1ccccc1)C(=O)O)c1ccccc1 [DBTA, (+)-2,3-dibenzoyl-D-tartaric acid]
- solubility at 5 days ([1]; 20 °C): 99.1 mg/mL (≈ 277 mM)
- solubility at 5 days ([1]; 30 °C): 100 mg/mL (≈ 280 mM)
- solubility at 5 days ([1]; 40 °C): 98.9 mg/mL (≈ 276 mM)
- solubility at 5 days ([1]; 50 °C): 88 mg/mL (≈ 246 mM)
- solubility at 5 days ([1]; 60 °C): 105 mg/mL (≈ 293 mM)
- solubility at 5 days ([1]; 65 °C): 96.1 mg/mL (≈ 268 mM)
- solubility at 5 days [1]: ~100 mg/mL (≈ 279 mM)

Compound: Cc1ccnc(C(C)C)c1-n1c(=O)[nH]c(=O)c2cc(F)c(Cl)nc21 [M/P-Dione]
- Solid de [2, 3]: −69.2%
- Supernatant [M]/[P] [2, 3]: 0.2
- Supernatant de [2, 3]: −73.6%
- Solid XRPD [2, 3]: A + RD
- Solid de [2, 4]: 0.6%
- Supernatant [M]/[P] [2, 4]: 0.9
- Supernatant de [2, 4]: −3.9%
- Solid de [2, 5]: 27.0%
- Supernatant [M]/[P] [2, 5]: 33.4
- Supernatant de [2, 5]: 94.2%
- Solid XRPD [2, 5]: A + RC
- Solid de [2, 6]: 35.0%
- Supernatant [M]/[P] [2, 6]: 37.6
- Supernatant de [2, 6]: 94.8%
- Solid XRPD [2, 6]: A + RC
- Solid de [2, 7]: 1.4%
- Supernatant [M]/[P] [2, 7]: 1.1
- Supernatant de [2, 7]: 4.4%
- Solid de [2, 8]: −39.1%
- Supernatant [M]/[P] [2, 8]: 0.2
- Supernatant de [2, 8]: −72.8%
- Solid XRPD [2, 8]: A + RD
- Solid de [2, 9]: 54.9%
- Supernatant [M]/[P] [2, 9]: 34.5
- Supernatant de [2, 9]: 94.4%
- Solid XRPD [2, 9]: A + RC
